A short description of series [1]: Acute toxicity, oral, mice. The settings on record: mouse, in vivo, fasting mice, 14 days observation. How it is done:
(§1) Acute toxicity is determined by oral administration of the test material in fasting mice and rats.
(§2) The compound of Example 1 is homogeneously suspended in a carrier comprising a 3% gum arabic solution.
(§3) The animals are kept under observation during 14 days after the treatment.

Series [2] relates to Turfyl nicotinate (Trafuril)-induced erythema. Put plainly: Turfyl nicotinate (Trafuril)-induced erythema. The class given is in vivo. The conditions noted are these: oral, male albino guinea-pigs; for ED50: Cavia porcellus; for ED50 / Trafuril ED50: 1 hour prior to test. As to the method: 2 - Turfyl nicotinate (Trafuril) -induced erythema
A slight modification of the HAINING method (Br. Jl. Pharmacol., 1963, 21, 104-12) is used:
The test is carried out with homogeneous lots of 6-12 male albino guinea-pigs weighing 300-400 g, after careful depilation of the skin of their backs on the previous day.
On the day of the test, a disk for antibiotic sensitivity determination impregnated with a 5% alcoholic Turfyl nicotinate solution is applied during one minute on the lumbar area.
The effect produced is recorded after five minutes.
The results are rated according to an "all or nothing" scale, according to whether or not an erythema appears at the locus of application of the disk.
The treatment is administered orally one hour prior to the test, under an uniform volume of 1 ml/kg body weight; the test materials are homogeneously suspended with 3% gum arabic.
The reference animals are administered an equal volume of carrier.
The percent erythema obtained in the treated animals is compared with that obtained in the simultaneously tested reference lot.

Series [3] deals with Bradykinine-induced bronchoconstriction. Put plainly: Anti-bradykinine activity (Konzett and Rossler technique). It is filed as in vivo, guinea-pig. The settings on record: I.V., dosage of 100 γ/kg; bradykinine 20 γ/kg I.V. The text has this: c. Anti-bradykinine activity
The antagonistic action of the compound described in Example 1 was studied with respect to a Bradykinine-induced bronchoconstriction in guinea-pig (20 γ/kg I.V.).
The technique used was the conventional technique described by KONZETT and ROSSLER (Arch. Exp. Path. Pharmakol., 195, 71-74) and later by HARICHAUX (C.R. Soc. Biol., 158, 12, 2437-2441).

Series [4] concerns phenylbenzoquinone-induced writhing movements. Put plainly: Analgesic activity, Siegmund Test (phenylbenzoquinone writhing). The class given is in vivo. The settings on record: mice; for ED50: Mus musculus, ip; for ED50 / Siegmund ED50: test material 1 hour before phenylbenzoquinone i.p. How it is done: Siegmund Test (Proc. Soc. Exp. Biol. Med., 1957, 95, 729-31)
Intraperitoneal injection of 0.25 ml of an aqueous-alcoholic 2-phenyl-1,4-benzoquinone solution at a concentration of 0.02% induces in mice a specific syndrome characterized by the stretching of the hind paws and writhing movements of the trunk.
The tests are carried out with homogeneous lots of 20-30 mice having an average weight of 20 g.
The animals are administered the test material at time zero. One hour later, phenylbenzoquinone is administered by the intraperitoneal route. The animals are individually kept under observation during 5 minutes, between the fifth and the tenth minute after phenylbenzoquinone injection.
The present activity of the test material is evaluated by comparing the number of writhing movements of the treated animals with respect to the reference animals.
On the technique in general: In writhing tests, fewer writhes than in controls are read as antinociception.

Series [5] has as its system carrageenin-induced edema. Put plainly: Acute carrageenin-induced edema. It is filed as in vivo. The settings on record: oral, male rats; for ED50: Rattus norvegicus; for ED50 / Carrageenin-induced edema ED50: 1 hour prior to carrageenin, edema at 3 hours; for Carrageenin-induced edema percent protection: 3 hours; for Carrageenin-induced edema ED50: 180 min. How it is done: c. Anti-inflammatory activity
1- Acute carrageenin-induced edema (Winster C. A., Risley E. A., Nuss G.W., Proc. Soc. Biol. Med., 1962, 3, 544-7)
Subplantar injection in the paw of rats of 0.05 ml of an aqueous gel containing 1% carrageenin induces a local edema which may be measured by means of an electric mercury plethysmometer.
Determination of the volume of the forepaw prior, and three hours after the carrageenin injection, makes it possible to calculate the percent inflammation.
The treatment is administered orally, one hour prior to carrageenin administration.
The tests are conducted only with homogeneous lots of 10 male rats weighing 180 g ± 10 g.
The resulting edema is evaluated for each animal by means of the ratio: [formula] in which:
Vo of the paw at time 3 hrs Vo = volume of the paw at time zero
The protection noted under the effect of the test material may be evaluated by comparing the percent edema determined in the treated lot with respect to the reference lot.

Series [6] deals with adjuvant arthritis (Mycobacterium butyricum). Put plainly: Adjuvant arthritis. The class given is in vivo. The conditions noted are these: at 20 mg/kg; oral, daily, 14th to 28th day; male rats. As to the method:
According to the works by PEARSON C. M. (J. Chronic. Dis., 1963, 16, 863-74), JONES R. D. and WARD J. R. (Recent progress in hormone research, vol. XIX, 1963, Ac. Press), WARD T. R., JONES R. S. (Arthritis and Rheumatism, 1962, 5, 557-64).
The tests are carried out in male rats weighing 151 g ± 20 g. On day 0, the animals are given intradermally, at the base of the tail, an 0.05 ml injection of a suspension of Mycobacterium butyricum in paraffin oil (12 mg killed microbial bodies/ml). The animals are selected on the 14th day and are distributed into homogeneous lots of 15 animals.
The treatment is administered orally, daily, from the 14th to the 28th day.
The chronic arthritis is evaluated according to two criteria:
Arthritis index, by separate scoring of the injuries (erythema, edema, distortions) of each of the four limbs (according to a scoring scale from 0 to 3; maximum score: 12) in each animal on the 14th day, the 18th day, the 21st day, the 24th day and the 28th day (the scoring is effected blind, by two different experimenters).
Sedimentation rate according to KOWARSKI (pipette held at an angle of 45°; recording time: 30 minutes).
The blood sample is taken by the retro-orbicular route. The determination is effected on the 14th, the 21st and the 28th day. […]

Series [7] in a line: Acute toxicity, oral, rats. The settings on record: rat, in vivo, fasting rats, 14 days observation. How it is done:
as §1, §2, §3

This is an account of results in patent US3963758A, “2-(Benzofuroyl)phenyl acetic acids” (Serdex - Societe d'Etudes, de Recherches, de Diffusion et …, priority 1973, dated 1976).

The structures appear in SMILES notation.

Broadly, the LD50 is the dose at which mortality reaches 50%. Low values mean greater toxicity, high ones lower toxicity. For orientation: ED50 means the dose at which the effect has come halfway, by size or by number of responders. Lower therefore signals an effect at a small dose. `CC(C(=O)O)c1cccc(C(=O)c2cc3ccccc3o2)c1` (racemic) [Example 1, 2-[3-(2-benzofuroyl)-phenyl]-propionic acid]: the LD50 at 336 h worked out at 2500 mg/kg in series [1] and 1300 mg/kg in series [7]. The ED50 in series [2] was found to be 3.6 mg/kg; in series [4], 0.72 mg/kg; in series [5], 9 mg/kg. For the same molecule, the “Inhibition of bradykinine-induced bronchospasm” value in series [3] is “inhibited”. For the same molecule, in series [6], the “Activity in adjuvant arthritis” value was “active”.
Molecule `O=C(O)Cc1ccc(C(=O)c2cc3ccccc3o2)cc1` [Example 2, [4-(2-benzofuroyl)-phenyl]acetic acid] had a Siegmund percent protection in series [4] (50 mg) of 28%. Moreover, the “Carrageenin-induced edema percent protection” value in series [5] (50 mg) came out at 15%.
In the case of `O=C(O)Cc1cccc(C(=O)c2cc3ccccc3o2)c1` [Example 3, [3-(2-Benzofuroyl)-phenyl]acetic acid], the Trafuril percent protection in series [2] (100 mg) is listed as 17%. Further, the Siegmund percent protection in series [4] (10 mg) amounted to 32%; in series [4] (50 mg), 50%. In addition, the “Carrageenin-induced edema percent protection” value in series [5] (100 mg) is recorded as 10%.
Consider `CC(C(=O)O)c1ccc(C(=O)c2cc3ccccc3o2)cc1` (stereo not shown) [Example 4, 2-[4-(2-Benzofuroyl)-phenyl]propionic acid], for which the median effective dose (ED50) is 115 mg/kg in series [2], 5 mg/kg in series [4] and 170 mg/kg in series [5].
For the molecule `Cc1c(C(=O)c2ccc(CC(=O)O)cc2)oc2ccccc12` [Example 5, 4-[2-(3-Methyl-benzofuroyl)]-phenyl acetic acid], the Siegmund percent protection in series [4] (50 mg) is on record as 14%. The “Carrageenin-induced edema percent protection” value in series [5] (100 mg) was determined as 15%.
`COc1ccc(C(C)C(=O)O)cc1C(=O)c1cc2ccccc2o1` (stereo not shown) [Example 6, 2-[3-(2-benzofuroyl)-4-methoxy-phenyl]propionic acid]: the figures for the ED50 in series [4] and in series [5] were approximately 15 mg/kg and more than 20 mg/kg, respectively.
In the case of `COc1ccc2oc(C(=O)c3cccc(C(C)C(=O)O)c3)cc2c1` (stereo not shown) [Example 7], the ED50 is less than 60 mg/kg in series [4] and less than 20 mg/kg in series [5].
Take `CC(C(=O)O)c1cccc(C(=O)c2cc3ccccc3o2)c1` (stereo not drawn) [Example 9, d-2-[3-(2-Benzofuroyl)-phenyl]propionic acid]: the “Trafuril ED50” value in series [2] is listed as 2.3 mg/kg. Also, the “Siegmund ED50” value in series [4] is less than 6 mg/kg. Besides, in series [5], the “Carrageenin-induced edema ED50” value is 8 mg/kg.
The corresponding values for `CC(C(=O)O)c1cccc(C(=O)c2cc3ccccc3o2)c1` (stereo not drawn) [Example 10, l-2-[3-(2-Benzofuroyl)-phenyl]propionic acid] are 8 mg/kg, less than 6 mg/kg and approximately 11.5 mg/kg.
